# Measurements published in patent US20220151999A1, “METHODS OF TREATING ATTENTION DEFICIT HYPERACTIVITY DISORDER USING KDM1A INHIBITORS SUCH AS THE COMPOUND VAFIDEMSTAT” (ORYZON GENOMICS, S.A., priority 2019, published 2022).
# Legend:
# Assay type in all cases: in vivo, human
# ADHD patients [1] = experiment: REIMAGINE Phase IIa trial, ADHD cohort: aggression by Clinical Global Impression (CGI-S, CGI-I) scales; settings: adult ADHD patients (5 eligible), 1.2 mg/day oral, 5 days on/2 days off, 8 weeks
# Text: (§1) As part of a Phase IIa clinical trial (REIMAGINE trial, EudraCT number 2018-002140-88) to evaluate the safety, tolerability and efficacy of the KDM1A inhibitor vafidemstat to treat aggression in adult population in patients with different CNS disorders, a cohort of ADHD patients was recruited and treated with vafidemstat for 8 weeks. A summary of the protocol of this clinical trial and results obtained in the ADHD cohort are provided below.
# (§2) Reimagine is a unicenter, open-label, 1-arm, 8-week clinical study to evaluate the efficacy, safety and tolerability of vafidemstat in aggression in adult population with Alzheimer's Disease (AD), Lewy Body Dementia (LBD), Adult attention Deficit Hyperactivity Disorder (ADHD), Borderline Personality Disorder (BPD) and Autism Spectrum Disorder (ASD). Six patients to be recruited per disorder. […]
# (§3) Evaluation of the effect of treatment with vafidemstat on aggression was performed using the Clinical Global Impression (CGI) scale. […] In addition to assessing its effect on aggression, the effect of treatment with vafidemstat on ADHD patients was also evaluated using the Attention Deficit Hyperactivity Disorder Rating Scale (ADHD-RS), a validated scale that is specific for ADHD and is widely used to evaluate ADHD in adults. […] Each item is scored from 0 to 3 points, with the highest scores indicating the presence of problematic symptoms/behavior. […]
# ADHD patients [2] = experiment: REIMAGINE Phase IIa trial, ADHD cohort: safety and tolerability; settings: adult ADHD patients, 1.2 mg/day oral, 5 days on/2 days off, 8 weeks
# Text: as §1
# Reimagine is a unicenter, open-label, 1-arm, 8-week clinical study to evaluate the efficacy, safety and tolerability of vafidemstat in aggression in adult population with Alzheimer's Disease (AD), Lewy Body Dementia (LBD), Adult attention Deficit Hyperactivity Disorder (ADHD), Borderline Personality Disorder (BPD) and Autism Spectrum Disorder (ASD). Six patients to be recruited per disorder.
# Main objective of the trial: To evaluate the safety and tolerability of vafidemstat in adult population with Alzheimer's Disease (AD), Lewy Body Dementia (LBD), Adult attention deficit hyperactivity disorder (ADHD), Borderline Personality Disorder (BPD), Autism Spectrum Disorder (ASD)
# Treatment: All patients received vafidemstat (as free base) at a dose of 1.2 mg/day, administered orally as a single capsule, in a 5 days on/2 days off schedule, during 8 weeks. […]
# ADHD patients [3] = experiment: REIMAGINE Phase IIa trial, ADHD cohort: ADHD Rating Scale (ADHD-RS); settings: adult ADHD patients (5 eligible), 1.2 mg/day oral, 5 days on/2 days off, 8 weeks; paired one-tail t-test p=0.0279
# Text: as §1, §2, §3
compound,measurement,setting,value
"Nc1nnc(CN[C@@H]2C[C@H]2c2ccc(OCc3ccccc3)cc2)o1 [vafidemstat, 5-((((1R,2S)-2-(4-(benzyloxy)phenyl)cyclopropyl)amino)methyl)-1,3,4-oxadiazol-2-amine]","CGI-Severity (CGI-S) score, aggression, change from visit 1 (baseline) to visit 7",ADHD patients [1]; paired one-tail t-test p=0.0043,statistically significant reductions
same,"CGI-Improvement (CGI-I) score, aggression, change from visit 1 (baseline) to visit 7",ADHD patients [1]; paired one-tail t-test p=0.0352,statistically significant reductions
same,safety and tolerability of treatment,ADHD patients [2],"safe and well tolerated, without significant adverse events"
same,"ADHD-RS score, change from visit 1 (baseline) to visit 7",ADHD patients [3],statistically significant reduction
